Consider nine molecules from patent US6353025B1, “Phenylaminoalkylcarboxylic acid derivatives and pharmaceutical compositions comprising the same” (Kissei Pharmaceutical Co., Ltd., priority 1997, dated 2002).

One data set has as its target T1, β1-adrenoceptor (Rattus norvegicus, UniProt P18090).
T1 construct: Atria of male SD rats (250 to 400 g in body weight) were isolated; from tissue; host or cells: isolated rat atria
The data set is described as follows: β1-adrenoceptor stimulating effects: increase of heart rate in isolated rat atria (Magnus method). Further details: species or system SD rats. As to the method: The experiment for measuring β1-adrenoceptor stimulating effects
Atria of male SD rats (250 to 400 g in body weight) were isolated and the experiment was conducted according to the Magnus method. The preparations with a tension of 0.5 g were exposed to Krebs-Henseleit solution maintained at 37° C. and gassed with a mixture of 95% oxygen and 5% carbon dioxide. The cardiac contractility was measured isometrically with a force-displacement transducer, and heart rate was recorded on a rectigram via a tachometer, and the drug was added cumulatively.

The target in another data set is T2, β2-adrenoceptor (Rattus norvegicus, UniProt P10608).
T2 construct: Uteri of pregnant SD rats (pregnancy day 21) were isolated and longitudinal uterine muscle strips; from tissue; host or cells: longitudinal uterine muscle strips of pregnant SD rats
The data set is described as follows: β2-adrenoceptor stimulating effects: inhibition of spontaneous contraction of isolated pregnant rat uterus (Magnus method). The following applies: isolated uterine muscle strips of pregnant SD rats (pregnancy day 21). As to the method:
The experiment for measuring β2-adrenoceptor stimulating effects
Uteri of pregnant SD rats (pregnancy day 21) were isolated and longitudinal uterine muscle strips of approximately 15 mm in length and approximately 5 mm in width free from the basal plate were prepared. The experiment was conducted according to the Magnus method. The preparations with a tension of 0.5 g were exposed to Locke-Ringer solution maintained at 37° C. and gassed with a mixture of 95% oxygen and 5% carbon dioxide. Spontaneous contractions of myometrium were measured isometrically with a force-displacement transducer and recorded on a rectigram. The drug was added cumulatively to the Magnus bath every 5 minutes.

For a further data set, the system named is male ICR rats. Kind of data set: Acute toxicity test. The following applies: male ICR rats of 4 weeks age, intravenously, 250 mg/kg, during 24 hours after the administration. It counts as in vivo. As for the experimental part:
To male ICR rats of 4 weeks age was administered intravenously N-[2,6-dichloro-4-[2-[[(1S, 2R)-2-hydroxy-2-(4-hydroxyphenyl)-1-methylethyl]amino]ethyl]phenyl]aminoacetic acid at a dose of 250 mg/kg.

For the next data set, the target named is β3-adrenoceptor (Mustela putorius furo, UniProt M3YEU4). Kind of data set: β3-adrenoceptor stimulating effects: relaxation of isolated ferret urinary bladder smooth muscle strips (Magnus method). The following applies: read-out: EC50 (molar concentration producing 50% relaxation of urinary bladder smooth muscle); isolated male ferret urinary bladder strips; 0% = maximal relaxation after 10^−5 M forskolin. As to the method:
The experiment for measuring β3-adrenoceptor stimulating effects
Urinary bladders of male ferrets (1100 to 1400 g in body weight) were isolated and urinary bladder smooth muscle strips of approximately 10 mm in length and approximately 2 mm in width were prepared. The experiment was conducted according to the Magnus method. The preparations with a tension of 1 g were exposed to Krebs-Henseleit solution maintained at 37° C. and gassed with a mixture of 95% oxygen and 5% carbon dioxide. Basal tensions of urinary bladder were measured isometrically with a force-displacement transducer and recorded on a rectigram. The drug was added cumulatively to the Magnus bath every 5 minutes. […] In this experiment, tension of urinary bladder smooth muscle before the addition of the drug was expressed as 100% and tension of maximal relaxation after the addition of 10^−5 molar concentration of forskolin was expressed as 0%.

Structures can show the parent of a compound that is named as a salt. Where two headings read alike, the source gives them in different places.

T1 sequence (P18090 whole entry): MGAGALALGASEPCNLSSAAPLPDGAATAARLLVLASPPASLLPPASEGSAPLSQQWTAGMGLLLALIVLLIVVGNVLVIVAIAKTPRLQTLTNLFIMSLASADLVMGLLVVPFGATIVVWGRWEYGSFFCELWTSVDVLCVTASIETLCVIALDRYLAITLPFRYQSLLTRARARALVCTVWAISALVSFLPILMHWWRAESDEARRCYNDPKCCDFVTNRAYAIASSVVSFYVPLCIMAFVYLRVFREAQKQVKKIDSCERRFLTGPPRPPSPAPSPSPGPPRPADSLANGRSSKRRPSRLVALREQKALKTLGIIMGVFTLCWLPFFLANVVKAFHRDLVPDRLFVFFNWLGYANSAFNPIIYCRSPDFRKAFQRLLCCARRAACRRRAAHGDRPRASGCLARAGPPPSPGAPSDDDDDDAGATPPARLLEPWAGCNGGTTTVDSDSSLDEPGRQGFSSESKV
T2 sequence (P10608 whole entry): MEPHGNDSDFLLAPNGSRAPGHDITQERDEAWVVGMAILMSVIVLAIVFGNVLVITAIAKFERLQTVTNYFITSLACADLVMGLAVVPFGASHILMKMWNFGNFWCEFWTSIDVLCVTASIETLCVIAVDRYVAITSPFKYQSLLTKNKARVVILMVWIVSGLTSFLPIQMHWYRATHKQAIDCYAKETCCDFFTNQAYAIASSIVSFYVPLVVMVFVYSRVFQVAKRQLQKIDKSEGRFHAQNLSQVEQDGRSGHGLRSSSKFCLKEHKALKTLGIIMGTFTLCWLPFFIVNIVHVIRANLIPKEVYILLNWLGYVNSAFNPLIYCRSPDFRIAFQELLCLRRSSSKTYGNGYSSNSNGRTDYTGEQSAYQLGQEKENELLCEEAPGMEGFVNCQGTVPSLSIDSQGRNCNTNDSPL
Sequence of β3-adrenoceptor (M3YEU4 entry or part of it): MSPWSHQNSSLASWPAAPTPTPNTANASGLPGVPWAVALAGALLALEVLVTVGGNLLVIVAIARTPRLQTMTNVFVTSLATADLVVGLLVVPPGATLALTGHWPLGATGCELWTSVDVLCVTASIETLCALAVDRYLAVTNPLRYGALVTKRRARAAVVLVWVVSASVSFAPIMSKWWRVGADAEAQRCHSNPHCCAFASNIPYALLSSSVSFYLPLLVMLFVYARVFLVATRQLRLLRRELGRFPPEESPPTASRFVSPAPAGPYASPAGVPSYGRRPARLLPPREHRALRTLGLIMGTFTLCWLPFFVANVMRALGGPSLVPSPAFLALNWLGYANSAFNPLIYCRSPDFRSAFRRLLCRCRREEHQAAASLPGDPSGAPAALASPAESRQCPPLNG

For `CCOC(=O)CNc1c(Cl)cc(CCN[C@@H](C)[C@H](O)c2ccc(O)cc2)cc1Cl` [Compound 2, Ethyl N-[2,6-dichloro-4-[2-[[(1S, 2R)-2-hydroxy-2-(4-hydroxy-phenyl)-1-methylethyl]amino]ethyl]phenyl]aminoacetate hydrochloride], the results for the EC50 on β1-adrenoceptor and on β2-adrenoceptor were 50 nM and 650 nM, respectively.

Turning to `C[C@H](NCCc1cc(Cl)c(NCC(=O)N2CCOCC2)c(Cl)c1)[C@H](O)c1ccc(O)cc1` [Compound 32, 4-[2-[[2,6-Dichloro-4-[2-[[(1S, 2R)-2-hydroxy-2-(4-hydroxy-phenyl)-1-methylethyl]amino]ethyl]phenyl]amino]acetyl]morpholine], the EC50 at β1-adrenoceptor was over 100000 nM; on β2-adrenoceptor, 1700 nM.

`C[C@H](NCCc1cc(Br)c(NCC(=O)O)c(Br)c1)[C@H](O)c1ccc(O)cc1` [Compound 29, N-[2,6-Dibromo-4-[2-[[(1S, 2R)-2-hydroxy-2-(4-hydroxyphenyl)-1-methylethyl]amino]ethyl]phenyl]aminoacetic acid]: on β1-adrenoceptor, the EC50 was over 100000 nM.

Regarding `C[C@H](NCCc1ccc(NCC(=O)O)c(Cl)c1)[C@H](O)c1ccc(O)cc1` [Compound 20, N-[2-Chloro-4-[2-[[(1S, 2R)-2-hydroxy-2-(4-hydroxyphenyl)-1-methylethyl]amino]ethyl]phenyl]aminoacetic acid], the EC50 on β1-adrenoceptor stood at 23000 nM; on β2-adrenoceptor, 3300 nM.

Take `C[C@H](NCCc1cc(Cl)c(NCC(=O)O)c(Cl)c1)[C@H](O)c1ccc(O)cc1` [Compound 17, N-[2,6-Dichloro-4-[2-[[(1S, 2R)-2-hydroxy-2-(4-hydroxyphenyl)-1-methylethyl]amino]ethyl]phenyl]aminoacetic acid]: the EC50 on β1-adrenoceptor was over 100000 nM; on β2-adrenoceptor, 14000 nM. In addition, the “Death of animals (acute toxicity)” value with male ICR rats is recorded as “No death of animals was observed”.

With `C[C@H](NCCc1ccc(NCC(=O)O)cc1)[C@H](O)c1ccc(O)cc1` [Compound 18, N-[4-[2-[[(1S, 2R)-2-hydroxy-2-(4-hydroxyphenyl)-1-methylethyl]-amino]ethyl]phenyl]aminoacetic acid], the figures for the EC50 at β1-adrenoceptor and at β2-adrenoceptor were 83 nM and 650 nM, respectively.

On β1-adrenoceptor, `C[C@H](NCCc1cc(Cl)c(NCC(=O)N(C)C)c(Cl)c1)[C@H](O)c1ccc(O)cc1` [Compound 16, 2-[[2,6-Dichloro-4-[2-[[(1S, 2R)-2-hydroxy-2-(4-hydroxyphenyl)-1-methylethyl]amino]ethyl]phenyl]amino]-N, N-dimethylacetamide hydrochloride] registered an EC50 of over 100000 nM.

As to `C[C@H](NCCc1ccc(N(C)CC(=O)O)cc1)[C@H](O)c1ccc(O)cc1` [Compound 21, N-[4-[2-[[(1S, 2R)-2-Hydroxy-2-(4-hydroxyphenyl)-1-methylethyl]-amino]ethyl]phenyl]-N-methylaminoacetic acid], the EC50 worked out at 34000 nM at β1-adrenoceptor and 1600 nM at β2-adrenoceptor.

Regarding `C[C@H](Cc1ccc(OCC(=O)O)cc1)NC[C@H](O)c1cccc(Cl)c1` [BRL-37344, reference compound], the EC50 was 270 nM at β1-adrenoceptor (read-out: EC50 (molar concentration producing 50% increase of heart rate per minute), isolated male SD rat atria, 100% = increase after 10^−8 M isoproterenol); 1.6 nM on β3-adrenoceptor; 9 nM on β2-adrenoceptor (read-out: EC50 (molar concentration producing 50% inhibition of uterine contraction)).
